The test system of one experiment is Staphylococcus aureus. The experiment can be described thus: Antibacterial activity against Staphylococcus aureus ATCC 6538 after 16 hrs. As to conditions: ATCC 6538, 16 h. The class given is functional.
Another experiment concerns Bacillus subtilis. The experiment can be described thus: Antibacterial activity against Bacillus subtilis ATCC 6633 after 16 hrs. The class given is functional. Conditions: ATCC 6633, 16 h.

≈ marks a conversion by molar mass, not a printed value.

Drawing on ChEMBL document CHEMBL1150953, “Novel betaines from the marine sponge Agelas dispar” (1998), this text covers MIC for two molecules.

By MIC is commonly meant the lowest concentration found to suppress growth. Read a low MIC as a more susceptible organism. Take `Cn1c(CC(=O)[O-])c[n+](C)c1N` [AMINOZOOANEMONIN]: the results for the MIC in the experiment on Staphylococcus aureus and in the experiment on Bacillus subtilis were 8.5 µg/mL (≈ 50.2 µM) and 2.5 µg/mL (≈ 14.8 µM), respectively.

For the molecule `O=C([O-])c1ccc[n+](CCO)c1` [PYRIDINEBETAINE A], the MIC in the experiment on Staphylococcus aureus came to 5 µg/mL (≈ 29.9 µM); against Bacillus subtilis, 3.5 µg/mL (≈ 20.9 µM).
